Tests used:
late watergrass = assay: Test Example 1: herbicidal activity, application before weed generation under submerged conditions (Table 16, symbol A); format: in vivo, late watergrass (Echinochloa oryzicola); settings: 320 g/ha applied herbicide
Procedure, shortened: (§1)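 Submerged Wagner pots (alluvial soil, 4 cm water) sown with weed seeds and planted with 2.5-leaf rice seedlings; emulsifiable concentrate diluted in water applied to water surface on sowing day. Held in greenhouse at 25-30 °C; injury scored 0-5 by herbicidal rate after three weeks.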

oval-leafed pondweed [1] = assay: Test Example 1: herbicidal activity, application before weed generation under submerged conditions (Table 16, symbol C); format: in vivo, oval-leafed pondweed (Monochoria vaginalis); settings: 320 g/ha applied herbicide
Procedure, shortened: as §1

Chinese sprangletop = assay: Test Example 3: herbicidal effect by foliage application, Wagner pot (Table 18, symbol D); format: in vivo, chinese sprangletop (Leptochloa chinensis); settings: for herbicidal effect on D (Chinese sprangletop), rating 0-5: 320 g/ha; for herbicidal effect on D: Chinese sprangletop: amount of applied herbicide 320 g/ha
Procedure, shortened: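 Plants were sown in alluvial soil held under 0.1–0.5 cm standing water and grown 14 days in a greenhouse at 25–30 °C. An emulsifiable formulation, water-diluted to the set dose, was then sprayed onto the foliage, and effects were scored three weeks later using previously defined criteria.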

blackgrass = assay: Test Example 4: herbicidal effect by soil treatment (Table 19, symbol J); format: in vivo, blackgrass (Alopecurus myosuroides); settings: for J: blackgrass, herbicidal effect rating: AAH 320 g/ha; for herbicidal effect rating, J: blackgrass: 320 g/ha; for herbicidal effect on J: blackgrass: amount of applied herbicide 320 g/ha
Procedure, shortened: (§2)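 Seeds were sown in sterilized diluvial soil and covered with about 1.5 cm of soil. An emulsion formulation diluted with water to a predetermined herbicide amount was sprayed evenly onto the soil surface. Plants grew in a greenhouse at 25° C. to 30° C., and the effect was scored three weeks after application using criteria from an earlier test.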

oval-leafed pondweed [2] = assay: Test Example 2: herbicidal activity, application during weed generation under submerged conditions (Table 17, symbol C); format: in vivo, oval-leafed pondweed (Monochoria vaginalis); settings: AAH 320 g/ha; application during weed generation, submerged conditions
Procedure, shortened: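 Effect on each weed is rated three weeks post-treatment, using the same scoring criteria as the preceding test. Plants grow from mixed-sown seed in flooded alluvial soil (4 cm water) at 25° C. to 30° C., and are treated at one to two leaves with diluted emulsion dropped onto the water.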

barnyard grass = assay: Test Example 5: herbicidal effect by foliage application, plastic box (Table 20, symbol H); format: in vivo, barnyard grass (Echinochloa crus-galli); settings: foliage application; for effect on barnyard grass (H): 3 weeks after application
Procedure, shortened: (§3)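 Plants sown in sterilized diluvial soil and grown 14 days in a greenhouse at 25° C to 30° C, then sprayed on the foliage with the compound's emulsion diluted in water to a predetermined herbicide amount. Injury to weeds and crops scored three weeks after application on a visual rating scale.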

Japanese bulrush = assay: Test Example 1: herbicidal activity, application before weed generation under submerged conditions (Table 16, symbol B); format: in vivo, Japanese bulrush (Schoenoplectus juncoides); settings: 320 g/ha applied herbicide
Procedure, shortened: as §1

southern crabgrass = assay: Test Example 5: herbicidal effect by foliage application, plastic box (Table 20, symbol F); format: in vivo, southern crabgrass (Digitaria ciliaris); settings: foliage application; for effect on southern crabgrass (F): 3 weeks after application
Procedure, shortened: as §3

persian speedwell = assay: Test Example 4: herbicidal effect by soil treatment (Table 19, symbol R); format: in vivo, Persian speedwell (Veronica persica); settings: for R: persian speedwell, herbicidal effect rating: AAH 320 g/ha
Procedure, shortened: as §2

lambsquarters = assay: Test Example 5: herbicidal effect by foliage application, plastic box (Table 20, symbol O); format: in vivo, lambsquarters (Chenopodium album); settings: foliage application; for effect on lambsquarters (O): 3 weeks after application
Procedure, shortened: as §3

windgrass = assay: Test Example 4: herbicidal effect by soil treatment (Table 19, symbol L); format: in vivo, windgrass (Apera spica-venti); settings: for herbicidal effect on L: windgrass: amount of applied herbicide 320 g/ha
Procedure, shortened: as §2

[3] = AAH 320 g/ha, three weeks after application
[4] = 320 g/ha, evaluated three weeks after application
[5] = AAH 320 g/ha, evaluated three weeks after application

SMILES | Herbicidal effect on A: late watergrass (grade 0-5) (late watergrass) | Herbicidal effect on C: oval-leafed pondweed (grade 0-5) (oval-leafed pondweed [1]) | herbicidal effect on D (Chinese sprangletop), rating 0-5 (Chinese sprangletop) | J: blackgrass, herbicidal effect rating (blackgrass) | herbicidal effect rating, C: oval-leafed pondweed (oval-leafed pondweed [2]) | Herbicidal effect on B: Japanese bulrush (grade 0-5) (Japanese bulrush) | R: persian speedwell, herbicidal effect rating (persian speedwell) | effect on barnyard grass (H) (barnyard grass; 320 g/ha) | effect on southern crabgrass (F) (southern crabgrass; 320 g/ha) | effect on lambsquarters (O) (lambsquarters; 320 g/ha) | also measured
Cc1nn(C)c(=O)c(-c2c(-c3ccc(OCC(F)(F)F)cc3)sc3ccccc23)c1O [1-140] | 3 (Herbicidal rate of 40% or more and less than 70%) | 0 (Herbicidal rate of 5% or less (almost no effect)) | 3 (Herbicidal rate of 40% or more and less than 70%) | 0 (Herbicidal rate of 5% or less (almost no effect)) | 0 (Herbicidal rate of 5% or less (almost no effect)) | 2 (Herbicidal rate of 20% or more and less than 40%) | 5 (Herbicidal rate of 90% or more (almost completely withered)) |  |  |  | H: barnyard grass, herbicidal effect (barnyard grass; [3]): 5 (Herbicidal rate of 90% or more (almost completely withered)); F: southern crabgrass, herbicidal effect (southern crabgrass; [3]): 4 (Herbicidal rate of 70% or more and less than 90%); O: lambsquarters, herbicidal effect (lambsquarters; [3]): 5 (Herbicidal rate of 90% or more (almost completely withered))
Cc1nn(C)c(=O)c(-c2c(-c3ccc(OC(F)F)cc3)sc3ccccc23)c1O [1-201] | 3 (Herbicidal rate of 40% or more and less than 70%) | 1 (Herbicidal rate of 5% or more and less than 20%) | 4 (Herbicidal rate of 70% or more and less than 90%) | 0 (Herbicidal rate of 5% or less (almost no effect)) | 3 (Herbicidal rate of 40% or more and less than 70%) | 4 (Herbicidal rate of 70% or more and less than 90%) | 5 (Herbicidal rate of 90% or more (almost completely withered)) | 5 (Herbicidal rate of 90% or more (almost completely withered)) | 0 (Herbicidal rate of 5% or less (almost no effect)) | 5 (Herbicidal rate of 90% or more (almost completely withered)) | 
COCCOCOc1c(C)nn(C)c(=O)c1-c1c(-c2ccc(OCCC3OCCO3)cc2)sc2ccccc12 [1-224] | 5 (Herbicidal rate of 90% or more (almost completely withered)) | 3 (Herbicidal rate of 40% or more and less than 70%) | 3 (Herbicidal rate of 40% or more and less than 70%) | 0 (Herbicidal rate of 5% or less (almost no effect)) |  | 5 (Herbicidal rate of 90% or more (almost completely withered)) | 3 (Herbicidal rate of 40% or more and less than 70%) | 5 (Herbicidal rate of 90% or more (almost completely withered)) | 3 (Herbicidal rate of 40% or more and less than 70%) | 4 (Herbicidal rate of 70% or more and less than 90%) | L: windgrass, herbicidal effect rating (windgrass; AAH 320 g/ha): 0 (Herbicidal rate of 5% or less (almost no effect))
Cc1nn(C)c(=O)c(-c2c(-c3ccccc3OC(F)(F)F)sc3ccc(F)cc23)c1O [2-043] | 0 (Herbicidal rate of 5% or less (almost no effect)) | 1 (Herbicidal rate of 5% or more and less than 20%) | 3 (Herbicidal rate of 40% or more and less than 70%) |  | 0 (Herbicidal rate of 5% or less (almost no effect)) | 2 (Herbicidal rate of 20% or more and less than 40%) |  | 4 (Herbicidal rate of 70% or more and less than 90%) | 4 (Herbicidal rate of 70% or more and less than 90%) | 4 (Herbicidal rate of 70% or more and less than 90%) | herbicidal effect rating, J: blackgrass (blackgrass): 0 (Herbicidal rate of 5% or less (almost no effect)); herbicidal effect rating, L: windgrass (windgrass; 320 g/ha): 0 (Herbicidal rate of 5% or less (almost no effect))
CCCC(=O)Oc1c(C)nn(C)c(=O)c1-c1c(-c2ccc(C(C)=O)cc2)sc2ccc(F)cc12 [2-078] | 5 (Herbicidal rate of 90% or more (almost completely withered)) | 4 (Herbicidal rate of 70% or more and less than 90%) | 5 (Herbicidal rate of 90% or more (almost completely withered)) |  | 4 (Herbicidal rate of 70% or more and less than 90%) | 4 (Herbicidal rate of 70% or more and less than 90%) |  |  |  |  | herbicidal effect rating, J: blackgrass (blackgrass): 1 (Herbicidal rate of 5% or more and less than 20%); herbicidal effect on H: barnyard grass (barnyard grass; [4]): 2 (Herbicidal rate of 20% or more and less than 40%); herbicidal effect on F: southern crabgrass (southern crabgrass; [4]): 0 (Herbicidal rate of 5% or less (almost no effect)); herbicidal effect rating, R: persian speedwell (persian speedwell; 320 g/ha): 5 (Herbicidal rate of 90% or more (almost completely withered)); herbicidal effect on O: lambsquarters (lambsquarters; [4]): 4 (Herbicidal rate of 70% or more and less than 90%)
Cc1nn(C)c(=O)c(-c2c(-c3ccc(OC(F)F)cc3)sc3ccc(F)cc23)c1OC(=O)C1CCCC1 [2-280] | 5 (Herbicidal rate of 90% or more (almost completely withered)) | 0 (Herbicidal rate of 5% or less (almost no effect)) |  |  |  | 3 (Herbicidal rate of 40% or more and less than 70%) |  |  |  |  | herbicidal effect on D: Chinese sprangletop (Chinese sprangletop): 3 (Herbicidal rate of 40% or more and less than 70%); herbicidal effect on J: blackgrass (blackgrass): 1 (Herbicidal rate of 5% or more and less than 20%); herbicidal effect on L: windgrass (windgrass): 0 (Herbicidal rate of 5% or less (almost no effect)); H: barnyard grass, herbicidal effect (criteria 0-5) (barnyard grass; [5]): 5 (Herbicidal rate of 90% or more (almost completely withered)); F: southern crabgrass, herbicidal effect (criteria 0-5) (southern crabgrass; [5]): 3 (Herbicidal rate of 40% or more and less than 70%); herbicidal effect on R: persian speedwell (persian speedwell; amount of applied herbicide 320 g/ha): 4 (Herbicidal rate of 70% or more and less than 90%); O: lambsquarters, herbicidal effect (criteria 0-5) (lambsquarters; [5]): 5 (Herbicidal rate of 90% or more (almost completely withered))
C=CCSCc1ccc(-c2sc3ccc(F)cc3c2-c2c(O)c(C)nn(C)c2=O)cc1 [2-323] | 4 (Herbicidal rate of 70% or more and less than 90%) | 0 (Herbicidal rate of 5% or less (almost no effect)) |  |  | 0 (Herbicidal rate of 5% or less (almost no effect)) | 2 (Herbicidal rate of 20% or more and less than 40%) |  |  |  |  | herbicidal effect on D: Chinese sprangletop (Chinese sprangletop): 2 (Herbicidal rate of 20% or more and less than 40%); herbicidal effect on J: blackgrass (blackgrass): 0 (Herbicidal rate of 5% or less (almost no effect)); herbicidal effect on L: windgrass (windgrass): 0 (Herbicidal rate of 5% or less (almost no effect)); H: barnyard grass, herbicidal effect (criteria 0-5) (barnyard grass; [5]): 4 (Herbicidal rate of 70% or more and less than 90%); F: southern crabgrass, herbicidal effect (criteria 0-5) (southern crabgrass; [5]): 5 (Herbicidal rate of 90% or more (almost completely withered)); O: lambsquarters, herbicidal effect (criteria 0-5) (lambsquarters; [5]): 5 (Herbicidal rate of 90% or more (almost completely withered))
